Measurements taken from ChEMBL document CHEMBL5665443, “Enzyme Inhibitor Single Concentration assay results for EUbOPEN Chemogenomics Library” (2024).

What was measured:
[1] = biological target: Methyl-CpG-binding domain protein 4 (Homo sapiens) (UniProt O95243); settings: Compound Concentration 10.0 uM;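 also: MBD4 activity read as fluorescence at 594 nm from cleavage and release of a quenched duplex DNA oligonucleotide, with APE1 coupled to incise the strand and raise turnover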
[2] = biological target: DNA-3-methyladenine glycosylase (Homo sapiens) (UniProt P29372); settings: Compound Concentration 10.0 uM;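 also: enzyme assay where MPG cuts a quenched duplex DNA oligonucleotide probe, paired with APE1 for strand incision and turnover, read as fluorescence at 594 nm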
Chain of DNA-3-methyladenine glycosylase (Homo sapiens) (P29372 whole entry): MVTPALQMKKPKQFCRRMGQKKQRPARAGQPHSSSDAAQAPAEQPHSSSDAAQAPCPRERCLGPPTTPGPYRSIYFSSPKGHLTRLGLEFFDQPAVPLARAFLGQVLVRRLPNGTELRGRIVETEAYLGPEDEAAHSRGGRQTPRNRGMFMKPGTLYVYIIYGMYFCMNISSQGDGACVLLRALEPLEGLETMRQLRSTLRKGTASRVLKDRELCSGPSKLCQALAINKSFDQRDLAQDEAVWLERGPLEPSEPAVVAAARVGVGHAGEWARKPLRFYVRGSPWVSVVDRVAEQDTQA

[3] = biological target: T1, Adenine DNA glycosylase (Homo sapiens) (UniProt Q9UIF7); settings: Compound Concentration 10.0 uM, Hit No;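 also: human MUTYH activity read as 594 nm fluorescence from cleavage and release of a quenched DNA duplex, coupled with APE1 for strand incision, lower signal meaning inhibition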
T1 sequence (whole entry): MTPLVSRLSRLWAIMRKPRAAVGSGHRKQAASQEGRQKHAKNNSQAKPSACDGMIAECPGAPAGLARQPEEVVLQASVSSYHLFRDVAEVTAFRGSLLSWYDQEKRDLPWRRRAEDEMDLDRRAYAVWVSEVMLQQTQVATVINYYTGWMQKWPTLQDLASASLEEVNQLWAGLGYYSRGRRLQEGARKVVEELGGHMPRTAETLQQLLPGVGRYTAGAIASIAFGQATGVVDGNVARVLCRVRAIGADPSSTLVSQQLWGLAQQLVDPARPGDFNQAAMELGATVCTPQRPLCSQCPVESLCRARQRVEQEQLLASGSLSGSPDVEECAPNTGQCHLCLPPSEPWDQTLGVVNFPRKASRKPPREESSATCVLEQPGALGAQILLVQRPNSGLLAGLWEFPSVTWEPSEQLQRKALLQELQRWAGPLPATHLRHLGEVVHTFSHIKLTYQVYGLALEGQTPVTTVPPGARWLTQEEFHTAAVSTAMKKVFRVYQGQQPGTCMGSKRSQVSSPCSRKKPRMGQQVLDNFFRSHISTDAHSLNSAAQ

[4] = biological target: Endonuclease 8-like 1 (Homo sapiens) (UniProt Q96FI4); settings: Compound Concentration 10.0 uM;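 also: fluorescence at 594 nm from quenched duplex DNA oligonucleotides released by NEIL1 cleavage and strand separation, reported as reduction of this enzyme activity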
Chain of Endonuclease 8-like 1 (Homo sapiens) (Q96FI4 whole entry): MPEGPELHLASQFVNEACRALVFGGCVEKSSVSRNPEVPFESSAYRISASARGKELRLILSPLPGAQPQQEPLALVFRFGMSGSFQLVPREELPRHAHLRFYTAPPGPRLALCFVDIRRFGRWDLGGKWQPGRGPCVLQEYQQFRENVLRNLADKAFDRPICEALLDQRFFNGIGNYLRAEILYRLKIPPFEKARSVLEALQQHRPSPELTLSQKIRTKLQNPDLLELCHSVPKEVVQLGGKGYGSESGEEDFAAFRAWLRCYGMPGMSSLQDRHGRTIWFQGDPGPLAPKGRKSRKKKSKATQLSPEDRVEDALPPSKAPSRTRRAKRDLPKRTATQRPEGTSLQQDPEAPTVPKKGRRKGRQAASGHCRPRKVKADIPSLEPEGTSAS

[5] = biological target: T2, Endonuclease 8-like 2 (Homo sapiens) (UniProt Q969S2); settings: Compound Concentration 10.0 uM;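 also: fluorescence at 594 nm reports NEIL2 cutting and release of a quenched double-stranded DNA oligo substrate, reduced signal read as inhibition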
T2 sequence (whole entry): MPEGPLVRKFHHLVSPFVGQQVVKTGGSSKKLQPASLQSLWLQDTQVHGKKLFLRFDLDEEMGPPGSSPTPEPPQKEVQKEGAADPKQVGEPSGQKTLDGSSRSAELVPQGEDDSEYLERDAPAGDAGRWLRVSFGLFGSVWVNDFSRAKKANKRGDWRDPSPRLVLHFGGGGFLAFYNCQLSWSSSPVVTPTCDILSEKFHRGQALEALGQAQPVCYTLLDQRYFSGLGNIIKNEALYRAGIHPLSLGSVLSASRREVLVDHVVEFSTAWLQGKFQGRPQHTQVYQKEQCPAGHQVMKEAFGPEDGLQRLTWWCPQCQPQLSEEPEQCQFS

[6] = biological target: T3, Endonuclease III-like protein 1 (Homo sapiens) (UniProt P78549); settings: Compound Concentration 10.0 uM;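 also: enzyme assay tracking NTHL1 cutting and release of a quenched double-stranded DNA oligo substrate, read as fluorescence at 594 nm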
T3 sequence (whole entry): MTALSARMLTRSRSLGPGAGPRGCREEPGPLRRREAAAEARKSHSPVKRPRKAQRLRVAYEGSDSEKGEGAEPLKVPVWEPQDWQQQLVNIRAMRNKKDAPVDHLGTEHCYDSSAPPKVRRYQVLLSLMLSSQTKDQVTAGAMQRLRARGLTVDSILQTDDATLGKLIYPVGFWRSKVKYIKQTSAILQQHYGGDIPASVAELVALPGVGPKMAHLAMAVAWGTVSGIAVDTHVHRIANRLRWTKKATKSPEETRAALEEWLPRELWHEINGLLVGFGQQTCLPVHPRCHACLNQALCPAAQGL

[7] = biological target: N-glycosylase/DNA lyase (Homo sapiens) (UniProt O15527); settings: Compound Concentration 10.0 uM;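 also: OGG1 cleavage of a quenched duplex DNA oligonucleotide, coupled to APE1 for strand incision, read as fluorescence at 594 nm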
Chain of N-glycosylase/DNA lyase (Homo sapiens) (O15527 whole entry): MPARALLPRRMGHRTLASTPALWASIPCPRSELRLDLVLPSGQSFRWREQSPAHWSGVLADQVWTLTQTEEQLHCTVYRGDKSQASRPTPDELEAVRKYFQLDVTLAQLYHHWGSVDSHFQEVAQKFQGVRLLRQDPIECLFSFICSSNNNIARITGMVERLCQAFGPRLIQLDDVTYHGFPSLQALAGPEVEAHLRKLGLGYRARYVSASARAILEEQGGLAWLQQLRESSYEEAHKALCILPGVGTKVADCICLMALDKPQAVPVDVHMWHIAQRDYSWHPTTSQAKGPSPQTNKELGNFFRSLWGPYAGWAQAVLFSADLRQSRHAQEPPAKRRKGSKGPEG

[8] = biological target: T4, Single-strand selective monofunctional uracil DNA glycosylase (Homo sapiens) (UniProt Q53HV7); settings: Compound Concentration 10.0 uM;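 also: enzymatic SMUG1 assay coupled with APE1, reading fluorescence at 594 nm released when a quenched double-stranded DNA oligonucleotide substrate is cleaved and separated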
T4 sequence (whole entry): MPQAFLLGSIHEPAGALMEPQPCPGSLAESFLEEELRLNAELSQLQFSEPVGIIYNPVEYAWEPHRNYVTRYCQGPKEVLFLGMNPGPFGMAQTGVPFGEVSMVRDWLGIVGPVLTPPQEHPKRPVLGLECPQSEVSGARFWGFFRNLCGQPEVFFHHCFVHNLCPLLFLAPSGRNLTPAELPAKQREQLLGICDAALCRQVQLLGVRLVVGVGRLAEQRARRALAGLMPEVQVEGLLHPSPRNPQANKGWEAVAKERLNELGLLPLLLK

[9] = biological target: G/T mismatch-specific thymine DNA glycosylase (Homo sapiens) (UniProt Q13569); settings: Compound Concentration 10.0 uM;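 also: human TDG cleavage of quenched duplex DNA oligonucleotides coupled to APE1, strand release read as fluorescence at 594 nm, inhibition of TDG activity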
Chain of G/T mismatch-specific thymine DNA glycosylase (Homo sapiens) (Q13569 whole entry): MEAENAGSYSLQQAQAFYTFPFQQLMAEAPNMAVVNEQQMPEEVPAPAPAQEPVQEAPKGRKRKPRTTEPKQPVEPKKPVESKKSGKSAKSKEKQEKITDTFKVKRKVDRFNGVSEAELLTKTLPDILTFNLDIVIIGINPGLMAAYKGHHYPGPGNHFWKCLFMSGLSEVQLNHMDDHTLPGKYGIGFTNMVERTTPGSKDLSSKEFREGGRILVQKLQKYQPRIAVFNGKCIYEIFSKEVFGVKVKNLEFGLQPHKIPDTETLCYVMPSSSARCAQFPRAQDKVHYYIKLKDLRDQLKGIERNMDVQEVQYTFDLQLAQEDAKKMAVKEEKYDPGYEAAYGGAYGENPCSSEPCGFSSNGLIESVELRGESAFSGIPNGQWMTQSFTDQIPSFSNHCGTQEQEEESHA

[10] = biological target: Uracil-DNA glycosylase (Homo sapiens) (UniProt P13051); settings: Compound Concentration 10.0 uM, Hit No;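 also: UNG excision on a quenched double-stranded DNA oligo probe, with APE1 added for strand incision and turnover, read as fluorescence at 594 nm as strands separate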
Chain of Uracil-DNA glycosylase (Homo sapiens) (P13051 whole entry): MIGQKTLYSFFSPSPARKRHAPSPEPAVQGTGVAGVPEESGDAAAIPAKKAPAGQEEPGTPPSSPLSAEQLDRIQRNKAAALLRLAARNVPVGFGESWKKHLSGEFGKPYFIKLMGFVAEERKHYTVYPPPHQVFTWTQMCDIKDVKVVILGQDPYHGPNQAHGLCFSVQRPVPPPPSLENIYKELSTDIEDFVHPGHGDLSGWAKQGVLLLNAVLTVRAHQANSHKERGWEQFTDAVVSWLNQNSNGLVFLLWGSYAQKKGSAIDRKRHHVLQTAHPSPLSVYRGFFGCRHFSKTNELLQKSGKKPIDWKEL

Chain of Methyl-CpG-binding domain protein 4 (Homo sapiens) (O95243 whole entry, the tested form may be a part): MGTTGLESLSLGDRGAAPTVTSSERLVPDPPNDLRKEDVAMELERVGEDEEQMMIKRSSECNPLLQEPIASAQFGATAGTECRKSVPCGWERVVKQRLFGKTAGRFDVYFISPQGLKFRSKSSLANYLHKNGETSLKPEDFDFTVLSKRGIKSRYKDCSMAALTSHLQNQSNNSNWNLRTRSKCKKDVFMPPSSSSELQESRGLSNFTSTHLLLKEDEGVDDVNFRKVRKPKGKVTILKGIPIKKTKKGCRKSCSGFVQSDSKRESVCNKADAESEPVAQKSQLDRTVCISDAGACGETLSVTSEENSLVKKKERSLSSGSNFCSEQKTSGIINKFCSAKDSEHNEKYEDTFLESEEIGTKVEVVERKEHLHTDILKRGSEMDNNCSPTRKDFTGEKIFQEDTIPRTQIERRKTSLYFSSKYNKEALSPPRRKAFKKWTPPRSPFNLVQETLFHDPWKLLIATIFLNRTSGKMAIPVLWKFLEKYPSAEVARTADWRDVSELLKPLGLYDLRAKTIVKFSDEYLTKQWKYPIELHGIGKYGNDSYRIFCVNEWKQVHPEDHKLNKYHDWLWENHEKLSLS

| Structure (SMILES) | inhibition ([1]; Hit Yes) | inhibition ([2]; Hit No) | inhibition [3] | inhibition ([4]; Hit No) | inhibition ([5]; Hit No) | inhibition ([6]; Hit No) | inhibition ([7]; Hit No) | inhibition ([8]; Hit No) | inhibition ([9]; Hit No) | inhibition [10] | inhibition ([1]; Hit No) | inhibition ([6]; Hit Yes) | inhibition ([7]; Hit Yes) | inhibition ([8]; Hit Yes) | inhibition ([9]; Hit Yes) | inhibition ([2]; Hit Yes) | inhibition ([4]; Hit Yes) | inhibition ([5]; Hit Yes) |
| --- | --- | --- | --- | --- | --- | --- | --- | --- | --- | --- | --- | --- | --- | --- | --- | --- | --- | --- |
| CCNC(=O)NS(=O)(=O)c1sc(CC(C)C)cc1-c1ccc(Cn2c(-c3ccccc3)nc(OC)c2C=O)cc1 | 78.6% | 51.7% | 90.4% | 12.3% | 7.29% | 8.82% | 21.2% | 36.2% | 64.7% | 6.28% |  |  |  |  |  |  |  |  |
| NC(=O)NN=Cc1ccc(Oc2ccc(F)cc2)cc1 |  | 2.76% | 8.22% | 9.49% | -3.41% | 0.568% | -9.24% | -4.59% | 11.3% | -5.79% | -2.63% |  |  |  |  |  |  |  |
| COc1cc(OC)c(NC(=O)Nc2cc(C)on2)cc1Cl |  | -9.71% | -8.2% | -2.66% | 3.98% | 17.9% | -6.94% | -8.83% | -8.88% | -3.91% | -2.96% |  |  |  |  |  |  |  |
| CCn1cnc2c(-c3ccc(F)c(-c4ccc(S(=O)(=O)CC)cc4OC)c3)cnnc21 |  | 7.34% | 16.3% | 6.83% | 12.9% | 13.8% | -5.04% | 1.23% | 22.3% | 6.05% | 19.2% |  |  |  |  |  |  |  |
| O=C(Nc1ccc(S(=O)(=O)Nc2nccs2)cc1)C(c1ccccc1)c1ccccc1 |  | 34% | 80.2% | -2.51% | -1.11% | 17.9% | -6.39% | 7.67% | 52.5% | 3.78% | 66% |  |  |  |  |  |  |  |
| O=C(O)COc1cccc(-c2ocnc2-c2nc(-c3ccccc3)c(-c3ccccc3)o2)c1 |  | 20.4% | 65% | 1.64% | -0.35% | 8.82% | 18.4% | -6.12% | 51% | -2.35% | 49.9% |  |  |  |  |  |  |  |
| O=C1CC[C@@]2(O)[C@H]3Cc4ccc(O)c5c4[C@@]2(CCN3CC2CC2)[C@H]1O5 |  | 4.49% | 14.6% | -9.92% | -8.5% | -4.39% | -3.73% | -9.51% | 27.8% | -2.62% | 4.42% |  |  |  |  |  |  |  |
| CC(=O)[C@H]1CC[C@H]2[C@@H]3CC[C@H]4C[C@H](O)CC[C@]4(C)[C@H]3CC[C@]12C |  | 31.5% | 1.4% | 9.05% | 5.51% |  | 7.89% | 13.9% | 19.2% | -1.14% | 25.8% | 46% |  |  |  |  |  |  |
| O=C(NS(=O)(=O)N1CCC1)c1cc(C2CC2)c(OCC23CC4CC(CC(C4)C2)C3)cc1F | 87.3% | 60.8% | 93% | 7.57% | 17.5% |  |  |  |  | 7.9% |  | 56.7% | 93.6% | 98.5% | 79.6% |  |  |  |
| COc1cc(C(=O)NS(=O)(=O)c2ccccc2C)ccc1Cc1cn(C)c2ccc(NC(=O)OC3CCCC3)cc12 |  | 33.1% | 50.6% | 13.9% | 28.2% | 29.8% |  | 24% | 61.3% | 7.14% | 67.2% |  | 45.1% |  |  |  |  |  |
| CC1(C)CN2C(CS/C(=N\C3CCCCC3)NC3CCCCC3)=CSC2=N1 |  | 8.86% | 4.05% | 6.38% | -0.86% | 11.3% | 5.96% | -4.87% | -0.781% | -3.07% | 7.88% |  |  |  |  |  |  |  |
| CC(=O)Nc1cccc2c1c(Sc1ccc(Cl)cc1)c(C)n2CC(=O)O |  | 5.39% | 23.9% | -0.204% | 5.76% | 6.32% | 3.49% | -1.39% | 16.4% | -0.965% | 11.4% |  |  |  |  |  |  |  |
| Cc1cc(OCCCS(C)(=O)=O)cc(C)c1-c1cccc(COc2ccc3c(c2)OC[C@H]3CC(=O)O)c1 |  | 12.1% | 49.2% | -4.36% | 8.25% | 10.7% | 18.3% | 12.3% | 44.4% | -3.46% | 46.9% |  |  |  |  |  |  |  |
| CCCCc1nc2ccc(NC(=O)NC3CCCCC3)cc2n1Cc1ccc(-c2ccccc2C(=O)O)cc1 |  | 24% | 38.2% | 9.29% | 11% | 8.52% | -1.26% | -6.72% | 33.1% | -9.57% | 30.2% |  |  |  |  |  |  |  |
| CN1CCN(c2ccc(Nc3c4ccccc4nc4ccccc34)cc2)CC1 |  |  | 113% |  |  |  |  |  |  | 12.9% | 88.7% | 84.8% | 84.8% | 78.7% | 73% | 90.3% | 65.5% | 90.9% |
| CN1CCC(c2c[nH]c3ccc(O)cc23)CC1 |  | -0.341% | -5.79% | -2.51% | -2.39% | 12.9% | -0.678% | -3.74% | 22.5% | -5.58% | 8.69% |  |  |  |  |  |  |  |
| FC(F)(F)c1ccc(Nc2ncnc3cc(-c4ncccc4C(F)(F)F)ccc23)cc1 |  | 12.8% | 26.4% | 11.7% | 2.71% | -4.39% | 5.12% | 19.7% | 25% | 1.01% | 18.4% |  |  |  |  |  |  |  |
| CN[C@@H]1CCc2[nH]c3ccc(C(N)=O)cc3c2C1 |  | -3.1% | -4.97% | 8.84% | -0.483% | -9.8% | 3.36% | -7.16% | 16.1% | -5.51% | 14.9% |  |  |  |  |  |  |  |
| CN(C)C(=O)c1cc2cnc(Nc3ccc(N4CCNCC4)cn3)nc2n1C1CCCC1 |  | 59.5% | 16.4% | 3.31% | -0.842% | -3.4% | 4.33% | 21.9% | 57.4% | 8.98% | 24.6% |  |  |  |  |  |  |  |
| COc1cc([N+](=O)[O-])ccc1NC(=O)c1ccccc1O |  | -4.2% | 4.12% | 3.86% | 8.06% | -0.258% | -1.87% | 9.42% | 9.09% | -6.06% | 0.275% |  |  |  |  |  |  |  |
| CCC(C)(C)/N=C(\NC#N)Nc1cccnc1 |  | 6.03% | 4.93% | 1.64% | -1.62% | 21.2% | -5.35% | -2.33% | 5.61% | -3.3% | 4.69% |  |  |  |  |  |  |  |
